What was measured:
[1] = Apparent permeability from basolateral to apical side in human Caco2 cells after 35 to 95 mins by LC-MS/MS analysis; type: ADME, cell-based; details: Caco-2
[2] = Efflux ratio of apparent permeability from basolateral to apical side over apical to basolateral side in human Caco2 cells after 35 to 95 mins by LC-MS/MS analysis; type: ADME, cell-based; details: Caco-2
[3] = AUC (0 to 8 hrs) in mouse plasma at 10 mg/kg, po; type: ADME, organism-based; set-up: dose 10 mg/kg, time < 8 hr, route oral
[4] = biological target: Macrophage-stimulating protein receptor (Homo sapiens, UniProt Q04912); experiment: Inhibition of recombinant human Ron using poly (Glu,Tyr)4:1 as substrate after 60 mins by ELISA
Chain of Macrophage-stimulating protein receptor (Q04912 25-304 limits assumed): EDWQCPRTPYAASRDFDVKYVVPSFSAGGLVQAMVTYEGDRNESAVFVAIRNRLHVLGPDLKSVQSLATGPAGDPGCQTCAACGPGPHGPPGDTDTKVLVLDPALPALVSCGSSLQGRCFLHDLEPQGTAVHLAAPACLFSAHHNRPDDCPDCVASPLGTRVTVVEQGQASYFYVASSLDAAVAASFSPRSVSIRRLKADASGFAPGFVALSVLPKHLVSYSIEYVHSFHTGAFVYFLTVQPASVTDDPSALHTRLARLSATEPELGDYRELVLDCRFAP
Chain of Macrophage-stimulating protein receptor (Q04912 310-1400 limits assumed): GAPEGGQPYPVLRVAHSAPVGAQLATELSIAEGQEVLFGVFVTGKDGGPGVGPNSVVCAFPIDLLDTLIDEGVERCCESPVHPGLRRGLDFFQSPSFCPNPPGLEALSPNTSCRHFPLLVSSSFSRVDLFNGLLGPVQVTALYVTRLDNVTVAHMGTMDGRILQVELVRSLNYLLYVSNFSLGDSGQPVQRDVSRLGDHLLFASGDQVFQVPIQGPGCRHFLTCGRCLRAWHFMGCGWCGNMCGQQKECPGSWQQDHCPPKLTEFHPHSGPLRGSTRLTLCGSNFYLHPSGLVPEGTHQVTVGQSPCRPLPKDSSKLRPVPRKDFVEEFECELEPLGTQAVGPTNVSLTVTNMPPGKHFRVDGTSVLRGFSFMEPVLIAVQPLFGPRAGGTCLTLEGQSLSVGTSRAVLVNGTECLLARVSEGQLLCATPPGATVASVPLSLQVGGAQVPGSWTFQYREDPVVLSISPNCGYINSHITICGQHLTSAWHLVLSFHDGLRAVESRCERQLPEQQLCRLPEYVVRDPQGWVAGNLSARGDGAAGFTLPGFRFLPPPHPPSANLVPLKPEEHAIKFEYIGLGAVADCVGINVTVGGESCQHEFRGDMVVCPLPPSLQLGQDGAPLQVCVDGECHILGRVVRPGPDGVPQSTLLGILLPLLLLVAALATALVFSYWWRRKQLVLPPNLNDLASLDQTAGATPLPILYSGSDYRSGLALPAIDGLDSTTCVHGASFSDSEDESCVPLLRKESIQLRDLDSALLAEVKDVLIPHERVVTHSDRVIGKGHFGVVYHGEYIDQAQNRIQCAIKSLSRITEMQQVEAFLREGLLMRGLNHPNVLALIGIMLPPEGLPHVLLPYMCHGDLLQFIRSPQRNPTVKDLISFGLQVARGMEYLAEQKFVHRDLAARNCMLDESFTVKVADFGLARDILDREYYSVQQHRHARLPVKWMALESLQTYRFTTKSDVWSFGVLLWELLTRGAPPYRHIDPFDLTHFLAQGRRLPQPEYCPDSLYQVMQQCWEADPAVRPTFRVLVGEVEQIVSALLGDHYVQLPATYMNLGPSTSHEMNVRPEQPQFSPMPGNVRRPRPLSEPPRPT

[5] = biological target: T1, Tyrosine-protein kinase receptor TYRO3 (Homo sapiens, UniProt Q06418); experiment: Inhibition of recombinant human TyrO3 using poly (Glu,Tyr)4:1 as substrate after 60 mins by ELISA
T1 sequence (Q06418 whole entry): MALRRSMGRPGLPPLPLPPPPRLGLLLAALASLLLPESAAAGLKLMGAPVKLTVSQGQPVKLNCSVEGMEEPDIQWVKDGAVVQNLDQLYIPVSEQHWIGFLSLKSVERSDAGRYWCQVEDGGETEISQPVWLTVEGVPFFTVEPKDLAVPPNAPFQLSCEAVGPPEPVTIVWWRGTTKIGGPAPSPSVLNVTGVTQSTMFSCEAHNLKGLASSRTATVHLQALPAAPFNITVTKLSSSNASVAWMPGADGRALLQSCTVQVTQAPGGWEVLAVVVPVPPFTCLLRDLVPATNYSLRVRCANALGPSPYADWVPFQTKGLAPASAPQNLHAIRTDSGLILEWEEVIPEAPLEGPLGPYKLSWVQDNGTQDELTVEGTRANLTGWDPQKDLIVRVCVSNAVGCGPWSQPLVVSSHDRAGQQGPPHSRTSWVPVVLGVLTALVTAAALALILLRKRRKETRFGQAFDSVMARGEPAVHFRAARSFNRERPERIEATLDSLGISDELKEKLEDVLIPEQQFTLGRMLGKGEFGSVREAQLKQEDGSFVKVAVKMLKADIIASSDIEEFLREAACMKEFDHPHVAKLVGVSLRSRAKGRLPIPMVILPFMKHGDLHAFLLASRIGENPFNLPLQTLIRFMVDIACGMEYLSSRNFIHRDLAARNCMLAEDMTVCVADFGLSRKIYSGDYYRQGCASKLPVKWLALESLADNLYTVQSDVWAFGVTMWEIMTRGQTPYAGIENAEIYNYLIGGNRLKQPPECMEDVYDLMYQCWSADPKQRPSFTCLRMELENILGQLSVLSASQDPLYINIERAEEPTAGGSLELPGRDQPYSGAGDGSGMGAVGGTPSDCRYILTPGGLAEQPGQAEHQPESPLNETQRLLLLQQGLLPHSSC

[6] = biological target: T2, Tyrosine-protein kinase Mer (Homo sapiens, UniProt Q12866); experiment: Inhibition of recombinant human Mer using poly (Glu,Tyr)4:1 as substrate after 60 mins by ELISA
T2 sequence (Q12866 whole entry): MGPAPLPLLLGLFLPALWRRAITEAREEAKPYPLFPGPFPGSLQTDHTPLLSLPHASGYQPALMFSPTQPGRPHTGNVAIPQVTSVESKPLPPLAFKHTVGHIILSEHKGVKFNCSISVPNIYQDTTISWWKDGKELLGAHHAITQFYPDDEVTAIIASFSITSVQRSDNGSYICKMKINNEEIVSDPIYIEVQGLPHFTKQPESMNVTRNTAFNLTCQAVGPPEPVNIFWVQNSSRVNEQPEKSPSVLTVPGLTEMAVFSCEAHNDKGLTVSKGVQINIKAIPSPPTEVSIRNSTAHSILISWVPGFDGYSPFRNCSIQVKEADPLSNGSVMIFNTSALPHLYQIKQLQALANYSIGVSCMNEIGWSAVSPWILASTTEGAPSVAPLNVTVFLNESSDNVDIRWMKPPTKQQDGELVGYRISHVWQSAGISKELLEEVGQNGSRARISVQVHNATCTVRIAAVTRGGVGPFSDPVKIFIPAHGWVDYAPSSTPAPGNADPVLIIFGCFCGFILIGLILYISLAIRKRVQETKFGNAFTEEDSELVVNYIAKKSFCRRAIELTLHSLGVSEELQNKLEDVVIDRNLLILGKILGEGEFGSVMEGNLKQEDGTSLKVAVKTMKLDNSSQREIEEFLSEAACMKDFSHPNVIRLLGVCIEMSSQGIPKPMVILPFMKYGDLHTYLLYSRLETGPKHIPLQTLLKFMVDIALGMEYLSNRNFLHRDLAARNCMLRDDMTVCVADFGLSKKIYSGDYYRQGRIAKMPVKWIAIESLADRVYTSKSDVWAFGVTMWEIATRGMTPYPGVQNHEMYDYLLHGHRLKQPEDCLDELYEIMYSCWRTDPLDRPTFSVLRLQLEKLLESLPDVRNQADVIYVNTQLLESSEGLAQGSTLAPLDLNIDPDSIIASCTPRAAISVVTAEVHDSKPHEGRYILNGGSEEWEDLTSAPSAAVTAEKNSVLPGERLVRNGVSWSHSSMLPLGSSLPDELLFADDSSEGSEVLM

[7] = biological target: Insulin-like growth factor 1 receptor (Homo sapiens, UniProt P08069); experiment: Inhibition of recombinant human IGF1R using poly (Glu,Tyr)4:1 as substrate after 60 mins by ELISA
[8] = biological target: Platelet-derived growth factor receptor beta (Homo sapiens, UniProt P09619); experiment: Inhibition of recombinant human PDGFR-beta using poly (Glu,Tyr)4:1 as substrate after 60 mins by ELISA
[9] = biological target: Vascular endothelial growth factor receptor 2 (Homo sapiens, UniProt P35968); experiment: Inhibition of recombinant human KDR using poly (Glu,Tyr)4:1 as substrate after 60 mins by ELISA
Chain of Vascular endothelial growth factor receptor 2 (P35968 whole entry): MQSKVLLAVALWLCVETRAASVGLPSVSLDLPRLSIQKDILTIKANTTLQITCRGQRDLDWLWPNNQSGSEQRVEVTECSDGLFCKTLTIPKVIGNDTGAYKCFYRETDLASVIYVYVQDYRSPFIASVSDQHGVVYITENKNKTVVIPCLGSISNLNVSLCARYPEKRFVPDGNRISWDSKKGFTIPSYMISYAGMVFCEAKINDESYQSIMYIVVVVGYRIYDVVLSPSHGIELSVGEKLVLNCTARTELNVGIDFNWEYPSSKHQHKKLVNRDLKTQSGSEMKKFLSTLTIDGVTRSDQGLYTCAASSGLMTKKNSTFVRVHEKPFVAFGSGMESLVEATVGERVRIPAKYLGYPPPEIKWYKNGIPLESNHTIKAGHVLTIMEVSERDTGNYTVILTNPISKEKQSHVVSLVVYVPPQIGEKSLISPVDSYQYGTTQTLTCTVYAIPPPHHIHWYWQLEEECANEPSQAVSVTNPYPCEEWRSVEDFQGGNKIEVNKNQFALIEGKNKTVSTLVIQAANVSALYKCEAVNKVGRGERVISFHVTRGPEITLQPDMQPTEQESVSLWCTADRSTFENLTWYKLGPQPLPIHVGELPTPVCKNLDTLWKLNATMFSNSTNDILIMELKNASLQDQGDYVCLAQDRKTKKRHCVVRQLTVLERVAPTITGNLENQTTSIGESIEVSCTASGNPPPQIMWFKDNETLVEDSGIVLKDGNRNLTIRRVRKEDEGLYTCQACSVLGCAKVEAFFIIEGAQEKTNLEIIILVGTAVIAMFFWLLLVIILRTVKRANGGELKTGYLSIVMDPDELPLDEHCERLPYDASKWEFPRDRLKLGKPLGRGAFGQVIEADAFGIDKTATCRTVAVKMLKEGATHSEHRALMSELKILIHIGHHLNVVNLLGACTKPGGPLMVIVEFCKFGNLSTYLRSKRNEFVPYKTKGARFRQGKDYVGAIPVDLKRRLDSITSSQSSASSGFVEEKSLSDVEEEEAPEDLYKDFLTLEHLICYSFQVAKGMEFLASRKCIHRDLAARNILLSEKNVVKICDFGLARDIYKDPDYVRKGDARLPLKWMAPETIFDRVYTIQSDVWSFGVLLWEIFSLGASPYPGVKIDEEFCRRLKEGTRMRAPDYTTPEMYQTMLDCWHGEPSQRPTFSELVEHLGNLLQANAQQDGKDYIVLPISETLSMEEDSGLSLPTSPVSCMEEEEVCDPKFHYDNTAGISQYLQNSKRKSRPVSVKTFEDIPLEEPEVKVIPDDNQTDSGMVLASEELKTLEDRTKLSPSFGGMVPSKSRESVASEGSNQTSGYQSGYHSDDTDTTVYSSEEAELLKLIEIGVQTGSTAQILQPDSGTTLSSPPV

[10] = biological target: Vascular endothelial growth factor receptor 1 (Homo sapiens, UniProt P17948); experiment: Inhibition of recombinant human Flt-1 using poly (Glu,Tyr)4:1 as substrate after 60 mins by ELISA
Ephrin type-A receptor 2 = Ephrin type-A receptor 2 (Homo sapiens, UniProt P29317); experiment: Inhibition of recombinant human EPH-A2 using poly (Glu,Tyr)4:1 as substrate after 60 mins by ELISA
[11] = biological target: Receptor tyrosine-protein kinase erbB-2 (Homo sapiens, UniProt P04626); experiment: Inhibition of recombinant human ErbB2 using poly (Glu,Tyr)4:1 as substrate after 60 mins by ELISA
Chain of Receptor tyrosine-protein kinase erbB-2 (P04626 whole entry): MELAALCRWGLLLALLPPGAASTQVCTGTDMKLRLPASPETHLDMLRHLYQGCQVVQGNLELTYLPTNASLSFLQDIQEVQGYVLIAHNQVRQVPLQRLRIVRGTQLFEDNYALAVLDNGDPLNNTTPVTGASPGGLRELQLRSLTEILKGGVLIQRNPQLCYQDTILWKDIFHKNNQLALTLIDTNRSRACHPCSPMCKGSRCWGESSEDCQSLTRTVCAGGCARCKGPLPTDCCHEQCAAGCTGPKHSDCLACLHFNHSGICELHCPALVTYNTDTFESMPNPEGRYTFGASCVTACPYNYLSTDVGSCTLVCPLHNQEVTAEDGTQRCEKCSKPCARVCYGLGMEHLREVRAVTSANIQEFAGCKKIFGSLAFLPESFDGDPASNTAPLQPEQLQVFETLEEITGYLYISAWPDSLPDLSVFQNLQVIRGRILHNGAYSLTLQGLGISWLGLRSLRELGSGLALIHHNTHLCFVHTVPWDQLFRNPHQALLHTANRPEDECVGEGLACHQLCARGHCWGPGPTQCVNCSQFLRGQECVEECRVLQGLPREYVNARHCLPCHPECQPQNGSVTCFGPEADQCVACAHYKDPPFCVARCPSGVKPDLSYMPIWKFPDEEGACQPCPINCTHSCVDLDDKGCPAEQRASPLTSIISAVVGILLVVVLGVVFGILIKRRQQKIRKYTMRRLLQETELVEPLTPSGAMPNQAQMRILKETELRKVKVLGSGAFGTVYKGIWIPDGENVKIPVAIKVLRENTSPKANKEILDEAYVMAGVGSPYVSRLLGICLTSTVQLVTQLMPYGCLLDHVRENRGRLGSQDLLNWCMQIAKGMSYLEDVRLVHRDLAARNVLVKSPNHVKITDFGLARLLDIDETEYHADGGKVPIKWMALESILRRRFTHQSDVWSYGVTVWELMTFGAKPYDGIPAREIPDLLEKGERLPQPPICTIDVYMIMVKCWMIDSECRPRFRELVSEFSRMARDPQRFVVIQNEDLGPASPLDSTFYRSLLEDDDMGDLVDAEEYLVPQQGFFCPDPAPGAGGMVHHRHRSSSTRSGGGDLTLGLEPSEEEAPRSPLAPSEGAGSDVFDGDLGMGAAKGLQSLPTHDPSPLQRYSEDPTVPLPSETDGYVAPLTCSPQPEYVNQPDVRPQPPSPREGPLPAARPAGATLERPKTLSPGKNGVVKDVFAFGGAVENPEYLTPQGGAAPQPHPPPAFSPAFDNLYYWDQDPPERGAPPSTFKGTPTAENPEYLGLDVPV

[12] = biological target: Tyrosine-protein kinase ABL1 (Homo sapiens, UniProt P00519); experiment: Inhibition of recombinant human ABL using poly (Glu,Tyr)4:1 as substrate after 60 mins by ELISA
Chain of Tyrosine-protein kinase ABL1 (P00519 whole entry): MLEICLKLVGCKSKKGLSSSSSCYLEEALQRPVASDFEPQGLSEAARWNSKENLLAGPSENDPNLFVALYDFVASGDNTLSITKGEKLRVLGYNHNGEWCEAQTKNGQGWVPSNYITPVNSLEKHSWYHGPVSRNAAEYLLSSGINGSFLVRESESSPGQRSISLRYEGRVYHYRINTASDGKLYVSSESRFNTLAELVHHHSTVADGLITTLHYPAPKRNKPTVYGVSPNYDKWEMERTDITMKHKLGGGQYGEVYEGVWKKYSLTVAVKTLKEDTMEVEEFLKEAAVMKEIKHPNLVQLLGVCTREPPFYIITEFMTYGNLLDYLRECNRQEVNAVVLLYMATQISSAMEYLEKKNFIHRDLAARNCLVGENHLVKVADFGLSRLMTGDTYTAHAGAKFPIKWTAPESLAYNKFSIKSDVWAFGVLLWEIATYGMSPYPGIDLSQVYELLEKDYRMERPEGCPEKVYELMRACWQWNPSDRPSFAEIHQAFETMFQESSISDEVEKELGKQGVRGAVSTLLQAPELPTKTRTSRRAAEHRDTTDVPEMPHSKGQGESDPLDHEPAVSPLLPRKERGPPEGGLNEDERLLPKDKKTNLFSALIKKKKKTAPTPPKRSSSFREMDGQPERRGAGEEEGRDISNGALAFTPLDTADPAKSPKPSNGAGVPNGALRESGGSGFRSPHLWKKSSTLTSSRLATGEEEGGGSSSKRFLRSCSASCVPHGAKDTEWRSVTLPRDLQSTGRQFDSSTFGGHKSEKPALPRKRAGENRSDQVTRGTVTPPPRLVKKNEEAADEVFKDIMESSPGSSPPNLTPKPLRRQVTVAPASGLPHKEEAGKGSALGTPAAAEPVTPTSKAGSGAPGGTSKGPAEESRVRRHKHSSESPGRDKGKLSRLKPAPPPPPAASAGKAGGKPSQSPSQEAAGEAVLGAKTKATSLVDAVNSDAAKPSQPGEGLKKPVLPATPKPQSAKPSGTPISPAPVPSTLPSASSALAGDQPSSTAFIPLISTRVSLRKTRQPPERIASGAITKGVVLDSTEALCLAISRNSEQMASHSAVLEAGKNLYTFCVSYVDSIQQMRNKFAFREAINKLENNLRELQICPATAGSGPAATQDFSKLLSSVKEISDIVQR

[13] = Antitumor activity against human EBC1 cells xenografted in nude mouse assessed as tumor growth inhibition at 40 mg/kg, po qd administered for 21 days relative control; type: functional; details: EBC-1, po, 504 h, read-out: TGI
[14] = Antitumor activity against human EBC1 cells xenografted in nude mouse assessed as tumor growth inhibition at 5 mg/kg, po qd administered for 21 days relative to control; type: functional; details: EBC-1, po, 504 h, read-out: TGI
Mus musculus = experiment: Toxicity in nude mouse xenografted with human EBC1 cells assessed as body weight at 5 and 40 mg/kg, po qd administered for 21 days; type: organism-based; details: in vivo, 504 h

With `Cn1cc(-c2cnc(Nc3cccc(Cn4nc(-c5cnn(C)c5)ccc4=O)c3)nc2)cn1` the Papp B→A [1] was 22.8 ×10⁻⁶ cm/s, the efflux ratio [2] was 1.3 and the AUC(0-t) at 8 h [3] was 1750 ng·h/mL. The IC50 [4] was over 1000 nM, the IC50 [5] was over 1000 nM and the IC50 [6] was over 1000 nM. It also gave an IC50 [7] of over 1000 nM, an IC50 [8] of over 1000 nM and an IC50 [9] of over 1000 nM. For the same molecule, the IC50 [10] was over 1000 nM, the IC50 (Ephrin type-A receptor 2) was over 1000 nM and the IC50 [11] was over 1000 nM. The IC50 [12] was over 1000 nM, the inhibition in vivo at 40 mg/kg [13] was 68.6% and the inhibition in vivo at 5 mg/kg [14] was 42.5%. The Activity (Mus musculus) was “Non-toxic”.

Reference: ChEMBL document CHEMBL3758137 (Eur J Med Chem, 2016)
